Test results: patent publication US7402548B2, “Benzoxazole compounds, process for producing the same and herbicides” (Kyoyu Agri Co., Ltd., priority 2000, dated 2008)

Key:
cotton [1] = assay: Soil treatment test for upland field; type: in vivo; settings: 500 g/ha, 3 weeks, glass house 25° C. Further: key: 0: normal development; 1: Less damaged; 2: Slightly damaged; 3: Moderately damaged; 4: Severely damaged; 5: All killed.
In short: (§1)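 Scored on a 0–5 scale (0 normal growth, 5 all killed) relative to untreated plots after 3 weeks in a glasshouse averaging 25° C. Compound applied as surfactant-containing (0.05%) aqueous dilution of wettable powder onto the surface of sown Ube alluvial soil at 500 g/ha.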

barnyard grass = assay: Herbicidal test for paddy field; type: in vivo, Eschinochloa crusgalli; settings: 500 g/ha, dropwise addition to paddy water at 1.5 leaf stage of barnyard grass; glass house 25° C., 3 weeks; rank 0-5 vs non-treated district; further: key: 0: normal development; 1: Less damaged; 2: Slightly damaged; 3: Moderately damaged; 4: Severely damaged; 5: All killed
In short: (§2)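 Wettable-powder formulations in water with 0.05% surfactant were dripped onto flooded (3 cm) Ube alluvial-soil pots at 500 g/ha, applied at barnyard grass 1.5-leaf stage. Plants were kept in a glasshouse at 25° C. for 3 weeks. Damage was scored 0 (normal) to 5 (all killed) versus untreated plants.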

Large crabgrass [2] = assay: Soil treatment test for upland field; type: in vivo, Digitaria adscendens; design: key: 0 = normal development, 5 = all killed; settings: 500 g/ha, 3 weeks, glass house 25° C.
In short: as §1

Large crabgrass [3] = assay: Foliar spread test for upland field; type: in vivo, Digitaria adscendens; design: key: 0 = normal development, 5 = all killed (6 ranks vs. untreated); settings: foliar spray, 500 ppm, 3 weeks, glass house 25° C.
In short: (§3)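 Seeds were sown in volcanic ash soil in Wagner pots and grown about 2 weeks in a glass house at an average 25° C. Wettable-powder formulations diluted to 500 ppm in water with 0.5% surfactant were sprayed uniformly over the plants. After 3 further weeks at 25° C, damage was scored 0 (normal) to 5 (all killed) against untreated plants.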

bulrush = assay: Herbicidal test for paddy field; type: in vivo, Scrips juncoides; settings: 500 g/ha, dropwise addition to paddy water at 1.5 leaf stage of barnyard grass; glass house 25° C., 3 weeks; rank 0-5 vs non-treated district; further: key: 0: normal development; 1: Less damaged; 2: Slightly damaged; 3: Moderately damaged; 4: Severely damaged; 5: All killed
In short: as §2

solgum = assay: Foliar spread test for upland field; type: in vivo; design: key: 0 = normal development, 5 = all killed (6 ranks vs. untreated); settings: foliar spray, 500 ppm, 3 weeks, glass house 25° C.
In short: as §3

wheat = assay: Foliar spread test for upland field; type: in vivo; design: key: 0 = normal development, 5 = all killed (6 ranks vs. untreated); settings: foliar spray, 500 ppm, 3 weeks, glass house 25° C.
In short: as §3

sugar beat = assay: Foliar spread test for upland field; type: in vivo; design: key: 0 = normal development, 5 = all killed (6 ranks vs. untreated); settings: foliar spray, 500 ppm, 3 weeks, glass house 25° C.
In short: as §3

cotton [4] = assay: Foliar spread test for upland field; type: in vivo; design: key: 0 = normal development, 5 = all killed (6 ranks vs. untreated); settings: foliar spray, 500 ppm, 3 weeks, glass house 25° C.
In short: as §3

soybean [5] = assay: Foliar spread test for upland field; type: in vivo; design: key: 0 = normal development, 5 = all killed (6 ranks vs. untreated); settings: foliar spray, 500 ppm, 3 weeks, glass house 25° C.
In short: as §3

corn = assay: Foliar spread test for upland field; type: in vivo; design: key: 0 = normal development, 5 = all killed (6 ranks vs. untreated); settings: foliar spray, 500 ppm, 3 weeks, glass house 25° C.
In short: as §3

soybean [6] = assay: Soil treatment test for upland field; type: in vivo; design: key: 0 = normal development, 5 = all killed; settings: 500 g/ha, 3 weeks, glass house 25° C.
In short: as §1

young rice plant = assay: Herbicidal test for paddy field; type: in vivo; settings: 500 g/ha, dropwise addition to paddy water at 1.5 leaf stage of barnyard grass; glass house 25° C., 3 weeks; rank 0-5 vs non-treated district; further: key: 0: normal development; 1: Less damaged; 2: Slightly damaged; 3: Moderately damaged; 4: Severely damaged; 5: All killed
Protocol: Then, the pots were filled with water to a depth of 3 cm. […] These plants were controlled in a glass house at an average temperature of 25° C. for 3 weeks, and then herbicidal effects thereof were investigated. The herbicidal effects are evaluated according to the following 6 ranks as compared with non-treated district. […] Incidentally, “-” in the column means not investigated.

Row | SMILES | Effects Sotton (cotton [1]) | Effects Barnyardgrass (barnyard grass) | Effects Large crabgrass (Large crabgrass [2]) | Effects Large crabgrass (Large crabgrass [3]) | Effects Bulrush (bulrush) | Effects Solgum (solgum) | Effects Wheat (wheat) | Effects Sugar beat (sugar beat) | Effects Sotton (cotton [4]) | Effects Soybean (soybean [5]) | Effects Corn (corn) | Effects Soybean (soybean [6]) | Effects Young rice plant (young rice plant)
1 | Fc1ccc2nc(-c3cccc(Oc4ccc(F)c(C(F)(F)F)c4)n3)oc2c1 [I-a-7] | 0 | 1 | 5 | 3 | 0 | 2 | 2 | 5 | 3 | 3 | 1 | 2 | 
2 | FC(F)(F)c1cccc(Oc2cccc(-c3nc4cc(Cl)ccc4o3)n2)c1 [I-a-3, 6-(5-chlorobenzoxazol-2-yl)-2-(3-trifluoromethylphenoxy)pyridine] |  | 3 | 5 | 2 | 0 | 1 | 1 | 4 | 4 | 3 | 1 | 3 | 2
3 | Fc1ccc2nc(-c3cccc(Oc4cccc(C(F)(F)F)c4)n3)oc2c1 [I-a-6, 6-(6-fluorobenzoxazol-2-yl)-2-(3-trifluoromethylphenoxy)pyridine] | 1 | 4 | 5 | 5 |  | 3 | 3 | 5 | 3 | 5 | 3 |  | 3
